Series [1] is described as follows: UV-Vis absorption and fluorescence spectroscopy of the Oxazine library. The format is physicochemical. Conditions: for Extinction coefficient: Beer's Law plots; for Quantum yield: relative, references Oxazine 1, Oxazine 170, Rhodamine 101. The method, then: (§1) All reagents were purchased from Sigma Aldrich, Fisher Scientific, TCI, or Ark Pharm. Unless otherwise indicated, all commercially available starting materials were used directly without further purification. Analytical thin layer chromatography (TLC) was performed on Millipore ready-to-use plates with silica gel 60 (F254, 32-63 μm). Flash chromatography was performed on Sorbent Technologies silica gel for column chromatography or on a Biotage Isolera Flash System using SNAP Ultra cartridges. High-resolution mass spectra (HRMS) were measured on a ThermoElectron LTQ-Orbitrap high resolution mass spectrometer with a dedicated Accela HPLC system, or an Agilent 6244 time-of-flight LCMS with diode array detector VL+. LCMS and Purity Characterization Mass-to-charge ratio and purity of the Oxazine compounds were characterized on an Agilent 6244 time-of-flight tandem liquid chromatography mass spectroscopy (LCMS) with diode array detector VL+. Sample (10 μL) was injected into a C18 column (Poroshell 120, 4.6×50 mm, 2.7 micron), and eluted with a solvent system of A (H2O, 0.1% FA) and B (MeCN, 01.% FA) at 0.4 mL/min, from A/B=90/10 to 5/95 over 10 min, maintained at A/B=5/95 for additional 5 min. Ions were detected in positive ion mode by setting the capillary voltage at 4 kV and gas temperature at 350° C. Purity was calculated through area under the curve analysis of the absorbance at 254 nm. UV-Vis Absorption and Fluorescence Spectroscopy. UV-Vis spectra were collected with a Cary 50 UV-Vis spectrophotometer at room temperature, using a 1-cm quartz cuvette. Fluorescence spectra were collected on a Cary Eclipse fluorescence spectrophotometer (Agilent Technologies). All absorbance spectra were reference corrected. Extinction coefficient was calculated from Beer's Law plots of absorbance versus concentration. Fluorescence spectra were corrected for the wavelength dependent response of the R928 photomultiplier tube using a manufacturer generated correction file. Relative quantum yields are reported as the average of multiple measurements using multiple references, including Oxazine 1, Oxazine 170, and Rhodamine 101. Physicochemical Property Calculation. Physicochemical partition coefficients (Log D) values at pH 7.4, number of hydrogen bond donors and acceptors, polar surface area, and the number of rotatable bonds were calculated using Marvin and JChem calculator plugins (ChemAxon, Budapest, Hungary). Nerve-Specificity Screening using Direct/Topical Administration Each compound was screened for its tissue-specificity using a previously published direct/topical administration strategy in murine brachial plexus and sciatic nerves.^1 Each compound from the Oxazine library was formulated in the previously utilized co-solvent formulation (10% DMSO, 5% Kolliphor, 65% serum and 20% phosphate buffered saline) at 125 μM. 100 μL of the formulated Oxazine were incubated on the exposed brachial plexus or sciatic nerve for 5 minutes. The fluorophore containing solution was removed and the area was irrigated with saline 18 times to remove any unbound fluorophore. Co-registered fluorescence and color images were collected of each stained area 30 minutes after Oxazine direct/topical administration using a custom built macroscopic imaging system with 620/60 nm excitation and 700/75 nm bandpass emission filters. Custom written MatLab code was used to analyze the tissue specific fluorescence where regions of interest were selected on the nerve, muscle and adipose tissue using the white light images. These regions of interest were then analyzed on the co-registered matched fluorescence images permitting assessment of the nerve to muscle and nerve to adipose ratios in blinded manner. […]

In series [2] the test system is murine brachial plexus and sciatic nerves. In words: Nerve-specificity screening using systemic administration. The format is in vivo. Conditions: for nerve specificity / nerve contrast (N/M vs control group) following systemic administration: 200 nmol, 4 hours prior to imaging.
Series [3] shares this test system. Description: Nerve-specificity screening using direct/topical administration. The format is in vivo, mouse. Conditions: for nerve specificity (N/M contrast vs control group) via direct administration: 125 μM, imaged 30 minutes after staining. The method, then: as §1

Turning to `CC/N=c1\ccc2nc3ccc(NCC)cc3oc-2c1` [LGW01-21, (E)-N-(7-(ethylamino)-3H-phenoxazin-3-ylidene)ethanaminium], in series [1], the “Max Abs” value is recorded as 617 nm, the “Max Em” value worked out at 634 nm, the “Max Ex” value is 620 nm and the Extinction coefficient turned out to be 28745 M⁻¹ cm⁻¹. The Quantum yield in series [1] is 30.12%. Further, in series [2] (IV), the “nerve specificity / nerve contrast (N/M vs control group) following systemic administration” value is on record as “negative for nerve contrast”. Also, the “nerve specificity (N/M contrast vs control group) via direct administration” value in series [3] is recorded as “positive nerve specificity”.
For `CCN1CCc2cc3nc4ccc(=[N+](CC)CC)cc-4oc3cc21` [LGW05-84, N-ethyl-N-(1-ethyl-2,3-dihydropyrrolo[3,2-b]phenoxazin-8(1H)-ylidene)ethanaminium], in series [1], the “Max Abs” value is on record as 643 nm, the “Max Em” value is 675 nm, the “Max Ex” value is 650 nm and the Extinction coefficient stood at 46048 M⁻¹ cm⁻¹. The compound further registered a Quantum yield in series [1] of 4.85%. Moreover, in series [2] (IV), the “nerve specificity / nerve contrast (N/M vs control group) following systemic administration” value is “positive”. Also, in series [3], the “nerve specificity (N/M contrast vs control group) via direct administration” value was “negative nerve specificity”.
On to `CC/N=c1/cc2oc3cc(N)c(C)cc3nc-2cc1C` [LGW06-10, (Z)—N-(7-amino-2,8-dimethyl-3H-phenoxazin-3-ylidene)ethanaminium], for which, in series [1], the “Max Abs” value amounted to 602 nm, the “Max Em” value came to 621 nm, the “Max Ex” value came out at 605 nm and the Extinction coefficient amounted to 55807 M⁻¹ cm⁻¹. The same compound had a Quantum yield in series [1] of 26.54%. Besides, in series [2] (IV), the “nerve specificity / nerve contrast (N/M vs control group) following systemic administration” value is recorded as “negative for nerve contrast”. In addition, the “nerve specificity (N/M contrast vs control group) via direct administration” value in series [3] is reported as “positive nerve specificity”.
`CC[N+](CC)=c1ccc2nc3cc4c(cc3oc-2c1)NCCO4` [LGW03-37, N-(3,4-dihydro-[1,4]oxazino[2,3-b]phenoxazin-8(2H)-ylidene)-N-ethylethanaminium]: in series [1], the “Max Abs” value came out at 646 nm, the “Max Em” value came out at 670 nm, the “Max Ex” value is listed as 650 nm and the Extinction coefficient was found to be 48849 M⁻¹ cm⁻¹. For the same compound, the Quantum yield in series [1] stood at 4.34%. In addition, the “nerve specificity / nerve contrast (N/M vs control group) following systemic administration” value in series [2] (IV) is “negative for nerve contrast”. In addition, the “nerve specificity (N/M contrast vs control group) via direct administration” value in series [3] is reported as “positive nerve specificity”.
Take `CC/N=c1/cc2oc3cc(NCC)cc(C)c3nc-2c(C)c1` [LGW02-95, (E)-N-(7-(ethylamino)-1,9-dimethyl-3H-phenoxazin-3-ylidene)ethanaminium]: in series [1], the “Max Abs” value was found to be 606 nm, the “Max Em” value is 627 nm, the “Max Ex” value amounted to 605 nm and the Extinction coefficient was 48653 M⁻¹ cm⁻¹. Moreover, in series [1], the Quantum yield came out at 32.50%. In addition, the “nerve specificity / nerve contrast (N/M vs control group) following systemic administration” value in series [2] (IV) was “negative for nerve contrast”. Further, the “nerve specificity (N/M contrast vs control group) via direct administration” value in series [3] is given as “positive nerve specificity”.
For `CC1=CC(C)(C)Nc2cc3c(cc21)N=c1cc2c(cc1O3)=NC(C)(C)C=C2C` [LGW03-01, 2,2,4,8,10,10-hexamethyl-10,11-dihydro-2H-dipyrido[3,2-b:2′,3′-i]phenoxazin-1-ium], in series [1], the “Max Abs” value is listed as 677 nm, the “Max Em” value is 695 nm, the “Max Ex” value stood at 680 nm and the Extinction coefficient came out at 44453 M⁻¹ cm⁻¹. The compound further came in with a Quantum yield in series [1] of 17.27%. Besides, the “nerve specificity / nerve contrast (N/M vs control group) following systemic administration” value in series [2] (IV) was “negative for nerve contrast”. Besides, the “nerve specificity (N/M contrast vs control group) via direct administration” value in series [3] is recorded as “positive nerve specificity”.
For the compound `CC[N+](CC)=c1ccc2nc3ccc(N(C)C)cc3oc-2c1` [LGW03-76, N-(7-(dimethylamino)-3H-phenoxazin-3-ylidene)-N-ethylethanaminium], in series [1], the “Max Abs” value stood at 654 nm, the “Max Em” value amounted to 669 nm, the “Max Ex” value was determined as 655 nm and the Extinction coefficient worked out at 66111 M⁻¹ cm⁻¹. In series [1], this compound displayed a Quantum yield of 7.99%. The “nerve specificity / nerve contrast (N/M vs control group) following systemic administration” value in series [2] (IV) is “high nerve specificity”. Besides, the “N/M and N/A ratios vs unstained control animals” value in series [2] (systemic administration) was “significantly higher N/M and N/A ratios than unstained control animals”. The “nerve specificity (N/M contrast vs control group) via direct administration” value in series [3] is listed as “high nerve specificity”. Further, the “N/M and N/A ratios vs unstained control animals” value in series [3] (direct administration) was “significantly higher N/M and N/A ratios than unstained control animals”.
As for `CC/N=c1/cc2oc3cc(N(CC)CC)c(C)cc3nc-2cc1C` [LGW01-23, (Z)—N-(7-(diethylamino)-2,8-dimethyl-3H-phenoxazin-3-ylidene)ethanaminium], in series [1], the “Max Abs” value came to 645 nm, the “Max Em” value is 635 nm, the “Max Ex” value was 620 nm and the Extinction coefficient came to 62445 M⁻¹ cm⁻¹. This compound returned a Quantum yield in series [1] of 0.67%. The “nerve specificity / nerve contrast (N/M vs control group) following systemic administration” value in series [2] (IV) is on record as “negative for nerve contrast”. The “nerve specificity (N/M contrast vs control group) via direct administration” value in series [3] is given as “positive nerve specificity”.
Take `C/N=c1/cc2oc3cc(NC)c(C)cc3nc-2cc1C` [LGW01-61, (Z)—N-(2,8-dimethyl-7-(methylamino)-3H-phenoxazin-3-ylidene)methanaminium]: in series [1], the “Max Abs” value is 612 nm, the “Max Em” value came out at 631 nm, the “Max Ex” value is recorded as 610 nm and the Extinction coefficient came to 21783 M⁻¹ cm⁻¹. For the same compound, the Quantum yield in series [1] worked out at 40.27%.
The corresponding values for `CC[N+](CC)=c1ccc2nc3ccc(N4CCCCC4)cc3oc-2c1` [LGW03-18, N-ethyl-N-(7-(piperidin-1-yl)-3H-phenoxazin-3-ylidene)ethanaminium] are 661 nm, 680 nm, 665 nm, 66206 M⁻¹ cm⁻¹ and 3.49%.
The corresponding values for `CCNc1cc2oc3cc(=[N+](CC)CC)ccc-3nc2cc1Cl` [LGW05-33, N-(8-chloro-7-(ethylamino)-3H-phenoxazin-3-ylidene)-N-ethylethanaminium] are 638 nm, 660 nm, 640 nm, 36166 M⁻¹ cm⁻¹ and 3.84%.
In the case of `CCNc1ccc2nc3ccc(=[N+](CC)CC)cc-3oc2c1` [LGW01-25, N-ethyl-N-(7-(ethylamino)-3H-phenoxazin-3-ylidene)ethanaminium], in series [1], the “Max Abs” value is given as 635 nm, the “Max Em” value turned out to be 660 nm, the “Max Ex” value is on record as 640 nm and the Extinction coefficient was determined as 41771 M⁻¹ cm⁻¹. In addition, the Quantum yield in series [1] was found to be 3.31%.
Regarding `CC/N=c1/cc2oc3c4c5c(cc3nc-2cc1C)CCCN5CCC4` [LGW01-99, (Z)—N-(11-methyl-2,3,6,7-tetrahydro-1H,5H,12H-quinolizino[1,9-bc]phenoxazin-12-ylidene)ethanaminium], in series [1], the “Max Abs” value worked out at 648 nm, the “Max Em” value was 667 nm, the “Max Ex” value is given as 650 nm and the Extinction coefficient came to 56046 M⁻¹ cm⁻¹. Besides, the Quantum yield in series [1] was found to be 10.14%. Moreover, the “toxicity upon systemic administration” value in series [2] (IV, mice) is “toxic upon systemic administration”.
